Data as given in patent US6608082B1, “Treatment of erectile dysfunction using isoquinoline compound melanocortin receptor ligands” (Lion Bioscience AG, priority 1998, dated 2003).
Where two headings read alike, the source gives them in different places.

Legend:
MCR-4 = biological target: T1, MCR-4 (Homo sapiens, UniProt P32245); test: Melanocortin receptor binding assay, competition with 125I-HP 467, HEK 293 cells expressing hMCR-4; conditions: inhibition of binding of 125I-HP 467, HEK 293 cells expressing MCR-4; for IC50: read-out: MC-4 IC50
T1 construct: expressed in transfected cells; host or cells: HEK 293
T1 sequence (P32245 whole entry): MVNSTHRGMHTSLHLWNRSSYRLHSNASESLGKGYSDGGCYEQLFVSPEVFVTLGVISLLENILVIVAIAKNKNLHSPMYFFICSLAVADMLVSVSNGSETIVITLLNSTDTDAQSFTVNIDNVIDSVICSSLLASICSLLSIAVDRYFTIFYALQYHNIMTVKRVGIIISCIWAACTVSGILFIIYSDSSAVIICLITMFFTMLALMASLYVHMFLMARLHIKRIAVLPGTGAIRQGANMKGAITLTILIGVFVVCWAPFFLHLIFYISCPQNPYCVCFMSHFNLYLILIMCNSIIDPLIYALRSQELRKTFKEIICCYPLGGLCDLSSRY
Protocol: All cell culture media and reagents were obtained from GibcoBRL (Gaithersburg Md.), except for COSMIC CALF SERUM (HyClone; Logan Utah).
Cells were suspended in PBS, 10% COSMIC CALF SERUM and 1 mM CaCl2. Cell suspensions were prepared at a density of 2×10^4 cells/ml for HEK 293 cells expressing hMCR-3, hMCR-4 or hMCR-5, and 1×10^5 cells/ml for HEK 293 cells expressing hMCR-1. Suspensions were placed in a water bath and allowed to warm to 37° C. for 1 hr.
Binding assays were performed in a total volume of 250 μl for HEK 293 cells. […] To each tube was added 4×10^3 HEK 293 cells expressing hMCR-3, hMCR-4 or hMCR-5, or 2×10^4 cells expressing hMCR-1. Assays were incubated for 2.5 hr at 37° C.
GF/B filter plates were prepared by soaking for at least one hour in 5 mg/ml BSA and 10 mM CaCl2. Assays were filtered using a Brandel 96-well cell harvester (Brandel Inc.; Gaithersburg, Md.). The filters were washed four times with cold 50 mM Tris, pH 7.4, the filter plates were dehydrated for 2 hr and 35 μl of MICROSCINT was added to each well. Filter plates were counted using a Packard Topcount (Packard Instrument Co.) and data analyzed using GraphPad PRISM v2.0 (GraphPad Software Inc.; San Diego Calif.) and Microsoft EXCEL v5.0a (Microsoft Corp.; Redmond Wash.).
To assay isoquinoline compounds, binding assays were performed in duplicate in a 96 well format. […] A 0.2 ml aliquot of suspended cells was added to each well to give the cell numbers indicate above, and the cells were incubated at 37° C. for 2.5 hr. Cells were harvested on GF/B filter plates as described above and counted.

MCR-1 = biological target: T2, MCR-1 (Homo sapiens, UniProt Q01726); test: Melanocortin receptor binding assay, competition with 125I-HP 467, HEK 293 cells expressing hMCR-1; conditions: for IC50 / MC-1 IC50: inhibition of binding of 125I-HP 467, HEK 293 cells expressing MCR-1; for IC50: read-out: MC-1 IC50; for % Disp. MC-1 10 μM: displacement of 125I-HP 467 at 10 μM isoquinoline compound
T2 construct: expressed in transfected cells; host or cells: HEK 293
T2 sequence (Q01726 whole entry): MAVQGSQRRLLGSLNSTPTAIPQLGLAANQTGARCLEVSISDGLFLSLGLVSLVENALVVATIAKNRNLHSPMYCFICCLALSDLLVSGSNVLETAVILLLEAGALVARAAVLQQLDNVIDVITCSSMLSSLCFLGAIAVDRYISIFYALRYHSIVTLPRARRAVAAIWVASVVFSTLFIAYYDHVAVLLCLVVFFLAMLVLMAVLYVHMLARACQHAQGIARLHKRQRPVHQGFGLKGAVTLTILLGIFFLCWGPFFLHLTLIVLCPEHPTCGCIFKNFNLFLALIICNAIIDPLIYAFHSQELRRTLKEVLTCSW
Summary of the method: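 Intact-cell competition binding, 2.5 hr at 37 °C, in PBS/10% calf serum/1 mM CaCl2; hMCR-4 cells at 4×10^3 per tube, hMCR-1 cells at 2×10^4 per tube. Filtration on BSA/CaCl2-soaked GF/B, cold 50 mM Tris pH 7.4 washes, scintillation count.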

SMILES	IC50 (MCR-4; TRG 2414 library)	IC50 (MCR-1; TRG 2414 library)	further results
NCC(CCCCN1Cc2ccccc2C(CNCc2ccccc2C(F)(F)F)C1c1ccccc1Br)NCc1ccccc1 (centres unmarked) [Cmpd 203]	39.6 µM	30.2 µM	–
CC(C)Cc1ccc(C(C)CNC(CN)CCCCN2Cc3ccccc3C(CNCc3ccccc3C(F)(F)F)C2c2ccccc2Br)cc1 (centres unmarked) [Cmpd 204]	–	–	MC-4 IC50 (MCR-4; TRG 2414 library): no fit; MC-1 IC50 (MCR-1; TRG 2414 library): no fit
CCOc1ccccc1CNCC1c2ccccc2CN(CCCCC(CN)NCCc2ccccc2)C1c1ccccc1Br (centres unmarked) [Cmpd 206]	6.2 µM	7.04 µM	–
CCOc1ccccc1CNCC1c2ccccc2CN(CCCCC(CN)NCc2ccccc2)C1c1ccccc1Br (centres unmarked) [Cmpd 207]	6.43 µM	7.67 µM	–
CCOc1ccccc1CNCC1c2ccccc2CN(CCCCC(CN)NCC(C)c2ccc(CC(C)C)cc2)C1c1ccccc1Br (centres unmarked) [Cmpd 208]	21.1 µM	34.4 µM	–
COc1ccccc1CCNCC1c2ccccc2CN(CCCCC(N)CN)C1c1ccccc1Br (centres unmarked) [Cmpd 209]	1.37 µM	1.71 µM	–
COc1ccccc1CCNCC1c2ccccc2CN(CCCCC(CN)NCCc2ccccc2)C1c1ccccc1Br (centres unmarked) [Cmpd 210]	4.43 µM	3.7 µM	–
COc1ccccc1CCNCC1c2ccccc2CN(CCCCC(CN)NCc2ccccc2)C1c1ccccc1Br (centres unmarked) [Cmpd 211]	4.21 µM	3.56 µM	–
COc1ccccc1CCNCC1c2ccccc2CN(CCCCC(CN)NCC(C)c2ccc(CC(C)C)cc2)C1c1ccccc1Br (centres unmarked) [Cmpd 212]	16.6 µM	18.3 µM	–
NCC(N)CCCCN1Cc2ccccc2C(CNCCc2cccc(Cl)c2)C1c1ccccc1Br (centres unmarked) [Cmpd 213]	2.06 µM	6.48 µM	–
NCC(CCCCN1Cc2ccccc2C(CNCCc2cccc(Cl)c2)C1c1ccccc1Br)NCCc1ccccc1 (centres unmarked) [Cmpd 214]	4.76 µM	7.38 µM	–
NCC(CCCCN1Cc2ccccc2C(CNCCc2cccc(Cl)c2)C1c1ccccc1Br)NCc1ccccc1 (centres unmarked) [Cmpd 215]	6.43 µM	8.51 µM	–
CC(C)Cc1ccc(C(C)CNC(CN)CCCCN2Cc3ccccc3C(CNCCc3cccc(Cl)c3)C2c2ccccc2Br)cc1 (centres unmarked) [Cmpd 216]	39 µM	48.3 µM	–
COc1cccc(CNCC2c3ccccc3CN(CCCCC(N)CN)C2c2ccccc2Br)c1 (centres unmarked) [Cmpd 217]	2.42 µM	5.56 µM	–
COc1cccc(CNCC2c3ccccc3CN(CCCCC(CN)NCCc3ccccc3)C2c2ccccc2Br)c1 (centres unmarked) [Cmpd 218]	10.8 µM	8.2 µM	–
COc1cccc(CNCC2c3ccccc3CN(CCCCC(CN)NCc3ccccc3)C2c2ccccc2Br)c1 (centres unmarked) [Cmpd 219]	9.59 µM	10.3 µM	–
COc1cccc(CNCC2c3ccccc3CN(CCCCC(CN)NCC(C)c3ccc(CC(C)C)cc3)C2c2ccccc2Br)c1 (centres unmarked) [Cmpd 220]	35.1 µM	40.6 µM	–
COc1ccc(CNCC2c3ccccc3CN(CCCCC(N)CN)C2c2ccccc2Br)cc1 (centres unmarked) [Cmpd 221]	1.83 µM	6.61 µM	–
COc1ccc(CNCC2c3ccccc3CN(CCCCC(CN)NCCc3ccccc3)C2c2ccccc2Br)cc1 (centres unmarked) [Cmpd 222]	4.78 µM	5.05 µM	–
COc1ccc(CNCC2c3ccccc3CN(CCCCC(CN)NCc3ccccc3)C2c2ccccc2Br)cc1 (centres unmarked) [Cmpd 223]	8.22 µM	10.6 µM	–
COc1ccc(CNCC2c3ccccc3CN(CCCCC(CN)NCC(C)c3ccc(CC(C)C)cc3)C2c2ccccc2Br)cc1 (centres unmarked) [Cmpd 224]	22.7 µM	31.5 µM	–
COc1ccc(CCNCC2c3ccccc3CN(CCCCC(N)CN)C2c2ccccc2Br)cc1 (centres unmarked) [Cmpd 225]	2.04 µM	4.52 µM	–
COc1ccc(CCNCC2c3ccccc3CN(CCCCC(CN)NCCc3ccccc3)C2c2ccccc2Br)cc1 (centres unmarked) [Cmpd 226]	3.42 µM	5.17 µM	–
COc1ccc(CCNCC2c3ccccc3CN(CCCCC(CN)NCc3ccccc3)C2c2ccccc2Br)cc1 (centres unmarked) [Cmpd 227]	3.71 µM	4.49 µM	–
COc1ccc(CCNCC2c3ccccc3CN(CCCCC(CN)NCC(C)c3ccc(CC(C)C)cc3)C2c2ccccc2Br)cc1 (centres unmarked) [Cmpd 228]	8.79 µM	17.7 µM	–

SMILES	IC50 (MCR-4; TRG 2414 library)	IC50 (MCR-1; TRG 2414 library)	further results
NCC(N)CCCCN1Cc2ccccc2C(CNCc2ccccc2)C1c1ccccc1Br (centres unmarked) [Cmpd 229]	1.29 µM	8.63 µM	–
NCC(CCCCN1Cc2ccccc2C(CNCc2ccccc2)C1c1ccccc1Br)NCCc1ccccc1 (centres unmarked) [Cmpd 230]	5.46 µM	6.48 µM	–
NCC(CCCCN1Cc2ccccc2C(CNCc2ccccc2)C1c1ccccc1Br)NCc1ccccc1 (centres unmarked) [Cmpd 231]	9.13 µM	11 µM	–
CC(C)Cc1ccc(C(C)CNC(CN)CCCCN2Cc3ccccc3C(CNCc3ccccc3)C2c2ccccc2Br)cc1 (centres unmarked) [Cmpd 232]	23.4 µM	32.7 µM	–
NCC(N)CCCCN1Cc2ccccc2C(CNC2CCCCCC2)C1c1ccccc1Br (centres unmarked) [Cmpd 233]	3.27 µM	3.32 µM	–
NCC(CCCCN1Cc2ccccc2C(CNC2CCCCCC2)C1c1ccccc1Br)NCCc1ccccc1 (centres unmarked) [Cmpd 234]	5.28 µM	4.41 µM	–
NCC(CCCCN1Cc2ccccc2C(CNC2CCCCCC2)C1c1ccccc1Br)NCc1ccccc1 (centres unmarked) [Cmpd 235]	5.35 µM	2.86 µM	–
CC(C)Cc1ccc(C(C)CNC(CN)CCCCN2Cc3ccccc3C(CNC3CCCCCC3)C2c2ccccc2Br)cc1 (centres unmarked) [Cmpd 236]	18 µM	14 µM	–
NCC(N)CCCCN1Cc2ccccc2C(CNC2CCCCC2)C1c1ccccc1Br (centres unmarked) [Cmpd 237]	3.61 µM	5.87 µM	–
NCC(CCCCN1Cc2ccccc2C(CNC2CCCCC2)C1c1ccccc1Br)NCCc1ccccc1 (centres unmarked) [Cmpd 238]	5.22 µM	2.78 µM	–
NCC(CCCCN1Cc2ccccc2C(CNC2CCCCC2)C1c1ccccc1Br)NCc1ccccc1 (centres unmarked) [Cmpd 239]	6.27 µM	3.3 µM	–
CC(C)Cc1ccc(C(C)CNC(CN)CCCCN2Cc3ccccc3C(CNC3CCCCC3)C2c2ccccc2Br)cc1 (centres unmarked) [Cmpd 240]	9.9 µM	8.98 µM	–
COc1ccccc1CCNCC1c2ccccc2CN(CCCCC(N)CN)C1c1ccc(Cl)cc1Cl (centres unmarked) [Cmpd 241]	–	–	MC-4 IC50 (MCR-4; TRG 2414 library): no fit; MC-1 IC50 (MCR-1; TRG 2414 library): no fit
NCC(N)CCCCN1Cc2ccccc2C(CNCCc2cccc(Cl)c2)C1c1ccc(Cl)cc1Cl (centres unmarked) [Cmpd 244]	–	44.1 µM	MC-4 IC50 (MCR-4; TRG 2414 library): no fit
COc1ccc(CNCC2c3ccccc3CN(CCCCC(N)CN)C2c2ccc(Cl)cc2Cl)cc1 (centres unmarked) [Cmpd 247]	–	–	MC-4 IC50 (MCR-4; TRG 2414 library): no fit; MC-1 IC50 (MCR-1; TRG 2414 library): no fit
COc1ccc(CCNCC2c3ccccc3CN(CCCCC(N)CN)C2c2cc(C(F)(F)F)cc(C(F)(F)F)c2)cc1 (centres unmarked) [Cmpd 262]	–	–	MC-4 IC50 (MCR-4; TRG 2414 library): no fit; MC-1 IC50 (MCR-1; TRG 2414 library): no fit
COc1ccccc1CCNCC1c2ccccc2CN(CCCCC(N)CN)C1c1ccc(Oc2ccccc2)cc1 (centres unmarked) [Cmpd 265]	–	–	MC-4 IC50 (MCR-4; TRG 2414 library): no fit; MC-1 IC50 (MCR-1; TRG 2414 library): no fit
NCC(N)CCCCN1Cc2ccccc2C(CNCCc2cccc(Cl)c2)C1c1ccc(Oc2ccccc2)cc1 (centres unmarked) [Cmpd 268]	–	–	MC-4 IC50 (MCR-4; TRG 2414 library): no fit; MC-1 IC50 (MCR-1; TRG 2414 library): no fit
COc1ccc(CNCC2c3ccccc3CN(CCCCC(N)CN)C2c2ccc(Oc3ccccc3)cc2)cc1 (centres unmarked) [Cmpd 271]	–	–	MC-4 IC50 (MCR-4; TRG 2414 library): no fit; MC-1 IC50 (MCR-1; TRG 2414 library): no fit
COc1ccc(CCNCC2c3ccccc3CN(CCCCC(N)CN)C2c2ccc(Oc3ccccc3)cc2)cc1 (centres unmarked) [Cmpd 274]	–	–	MC-4 IC50 (MCR-4; TRG 2414 library): no fit; MC-1 IC50 (MCR-1; TRG 2414 library): no fit
CCCOc1ccc(C2C(CNCCc3ccccc3OC)c3ccccc3CN2CCCCC(N)CN)cc1 (centres unmarked) [Cmpd 277]	–	–	MC-4 IC50 (MCR-4; TRG 2414 library): no fit; MC-1 IC50 (MCR-1; TRG 2414 library): no fit
CCCOc1ccc(C2C(CNCCc3cccc(Cl)c3)c3ccccc3CN2CCCCC(N)CN)cc1 (centres unmarked) [Cmpd 280]	–	–	MC-4 IC50 (MCR-4; TRG 2414 library): no fit; MC-1 IC50 (MCR-1; TRG 2414 library): no fit
CCCOc1ccc(C2C(CNCc3ccc(OC)cc3)c3ccccc3CN2CCCCC(N)CN)cc1 (centres unmarked) [Cmpd 283]	–	–	MC-4 IC50 (MCR-4; TRG 2414 library): no fit; MC-1 IC50 (MCR-1; TRG 2414 library): no fit
Cn1cccc1C1C(CNC2CCCCC2)c2ccccc2CN1CCN (centres unmarked) [TRG 2405-4]	–	–	IC50 (MCR-4; TRG 2405 section): 11.6 µM; IC50 (MCR-1; TRG 2405 section): 2.17 µM; % Disp. MC-1 10 μM (MCR-1; first of duplicate): 76.8%; % Disp. MC-1 10 μM (MCR-1; second of duplicate): 77.7%
NCCN1Cc2ccccc2C(CNC2CCCCC2)C1c1cc(C(F)(F)F)cc(C(F)(F)F)c1 (centres unmarked) [TRG 2405-28]	–	–	IC50 (MCR-4; TRG 2405 section): 9.24 µM; IC50 (MCR-1; TRG 2405 section): 8.75 µM; % Disp. MC-1 10 μM (MCR-1; first of duplicate): 52%; % Disp. MC-1 10 μM (MCR-1; second of duplicate): 52.5%
